Test results taken from US5135928A, “Triazolo derivatives and process for their preparation” (Egis Gyogyszergyar, priority 1989, dated 1992).

Legend:
mice = test: Hexobarbital narcosis on mice; format: in vivo; details: oral; for ED50: Mus musculus, 1 hour before Hexobarbital 40 mg/kg i.v., positive = sleeping time more than 2.5 times longer than control; for Therapeutical index: Hexobarbital narcosis
Description: 1. Hexobarbital narcosis on mice
Method: Kaergaard, Arch. Int. Pharmacodyn. 2, 170, (1967)
Groups consisting of 6 mice are used for each dose. The animals are treated orally with the test compound (the control group receives a vehicle), whereby sleeping is induced 1 hour later by administering a 40 mg/kg i.v. dose of Hexobarbital both to the test and control groups.
Animals which have a sleeping time more than 2.5 times longer than that of the control group are considered to show a positive reaction. ED50 values are calculated from the thus-transformed data.

rats = test: Antianginal effect (vasopressin-induced experimental coronaria insufficiency, height of wave T in ECG); format: in vivo; details: Rattus norvegicus, iv, 2 minutes prior to vasopressin i.v.; narcotised male rats 180-220 g
Description: Male rats of 180-220 g body weight were narcotised with chloralese-urethane(70/700 mg/kg ip.). The ECG was registered with needle electrodes in standard II leading. The experimental coronaria insufficiency was induced with vasopressin (4 NE/kg i.v.). The height of wave T in ECG was measured before and after the administration of vasopressin in both the control and treated groups. Test compounds were administered intravenously 2 minutes prior to the treatment with vasopressin.

| Compound | ED50 (mice) [mg/kg] | Therapeutical index (mice) | ED50 (rats) [mg/kg] |
| --- | --- | --- | --- |
| CN(N=Cc1c(Cl)cccc1Cl)C(=S)n1nc(N2CCOCC2)nc1N [Example 5, 1-(5-Amino-3-morpholino-1H-1,2,4-triazol-1-yl)-N-methyl-N'-(2,6-dichlorobenzylidene)carbothiohydrazide] | 36 | 27.8 | – |
| CN(N=Cc1ccc(OCC(N)=O)cc1)C(=S)n1nc(N2CCOCC2)nc1N [Example 7, 1-(5-Amino-3-morpholino-1H-1,2,4-triazol-1-yl)-N-methyl-N'-(4-carbamoylmethoxybenzylidene)carbothiohydrazide] | 110 | 9.1 | – |
| COc1cc(C=NN(C)C(=S)n2nc(SC)nc2N)ccc1O [Example 22, 1-(5-Amino-3-methylthio-1H-1,2,4-triazol-1-yl)-N-methyl-N'-(4-hydroxy-3-methoxybenzylidene)carbothiohydrazide] | 110 | 5.1 | – |
| CC1Nc2nc(N3CCOCC3)nn2C(=S)N(C)N1 (centres unmarked) [Example 41, 6,8-Dimethyl-2-morpholino-5,6,8,9-tetrahydro[1,2,4]-triazolo-[1,5-d][1,2,4,6]tetrazepine-5(7H)-thione] | 200 | 10.0 | – |
| CSc1nc2n(n1)C(=S)N(C)NC1(CCCCC1)N2 [Example 47, 6-Methyl-2-methylthio-5,6,8,9-tetrahydro[1,2,4]-triazolo[1,5-d][1,2,4,6]tetrazepine-5(7H)-thione-8-spiro-1'-cyclohexane] | 200 | 10.0 | – |
| CN1NC2(CCCC2)Nc2nc(N3CCOCC3)nn2C1=S [Example 48, 6-Methyl-2-morpholino-5,6,8,9-tetrahydro[1,2,4]-triazolo[1,5-d][1,2,4,6]tetrazepine-5(7H)-thione-8-spiro-1'-cyclopentane] | – | – | 1.35 |
| CN1NC2(CCCCCCCCCCC2)Nc2nc(N3CCOCC3)nn2C1=S [Example 53, 6-Methyl-2-morpholino-5,6,8,9-tetrahydro-1,2,4-triazolo[1,5-d][1,2,4,6]tetrazepine-5(7H)-thione-8-spiro-1'-cyclododecane] | 41 | 48.8 | 1 |
| COC(=O)CC1(C)Nc2nc(SC)nn2C(=S)N(C)N1 (centres unmarked) [Example 57, 6,8-Dimethyl-8-methoxycarbonyl-methyl-2-methylthio-5,6,8,9tetrahydro[1,2,4]triazolo[1,5-d][1,2,4,6]-tetrazepine-5(7H)-thione] | – | – | 1.65 |
| CCOC(=O)CCC1(C)Nc2nc(N3CCOCC3)nn2C(=S)N(C)N1 (centres unmarked) [Example 58, 6,8-Dimethyl-8-(ethoxycarbonyl-ethyl)-2-morpholino-5,6,8,9-tetrahydro[1,2,4]triazolo[1,5-d][1,2,4,6]-tetrazepine-5(7H)-thione] | 160 | 12.5 | – |
| CCCC(C)(COC(N)=O)COC(N)=O [Meprobamate, reference compound] | 270 | 4.1 | – |
| CC(Cc1ccccc1)NCCC(c1ccccc1)c1ccccc1 (centres unmarked) [Prenylamine, reference compound] | – | – | 6.5 |
